Experiments:
HCT-116 = assay: Cytotoxicity against human HCT116 cells; type: functional, cell-based
[1] = target: Serine/threonine-protein kinase pim-1 (Homo sapiens, UniProt P11309); assay: Inhibition of human PIM1 measured after 5 mins by ELISA relative to control
MCF7 = assay: Cytotoxicity against human MCF7 cells; type: functional, cell-based
HepG2 [2] = assay: Cytotoxicity against human HepG2 cells; type: functional, cell-based
HepG2 [3] = assay: Induction of apoptosis in human HepG2 cells assessed as upregulation of caspase 3 level measured up to 30 mins by immunoassay relative to control; type: functional
HepG2 [4] = assay: Induction of apoptosis in human HepG2 cells assessed as decrease in Bcl2 level by qRT-PCR analysis relative to control; type: functional
HepG2 [5] = assay: Induction of apoptosis in human HepG2 cells assessed as increase in Bax level by qRT-PCR analysis relative to control; type: functional
HepG2 [6] = assay: Induction of apoptosis in human HepG2 cells assessed as increase in Bax/Bcl2 ratio by qRT-PCR analysis relative to control; type: functional

SMILES	IC50 (HCT-116)	IC50 [1]	inhibition [1]	IC50 (MCF7)	IC50 (HepG2 [2])	fold change (FC) (HepG2 [3])	fold change (FC) (HepG2 [4])	fold change (FC) (HepG2 [5])	fold change (FC) (HepG2 [6])
COc1ccc(-c2cc(-c3cc4c(ccc5ccccc54)oc3=O)[nH]c(=O)c2C#N)cc1	24.9 µM	10.6 µM	83.1%	36.7 µM	36.3 µM	–	–	–	–
COc1ccc(-c2cc(-c3cc4c(ccc5ccccc54)oc3=O)nc(N)c2C#N)cc1	–	–	26%	–	300 µM	–	–	–	–
N#Cc1c(-c2cccc3ccccc23)cc(-c2ccc3ccccc3c2)[nH]c1=O	228 µM	10 µM	81%	236 µM	220 µM	–	–	–	–
N#Cc1c(-c2cccc3ccccc23)cc(-c2cccs2)nc1N	66.7 µM	–	58.5%	38.8 µM	181 µM	–	–	–	–
N#Cc1c(-c2cccc3ccccc23)cc(-c2cccs2)[nH]c1=O	28.6 µM	4.8 µM	77.8%	27.1 µM	35.9 µM	–	–	–	–
N#Cc1c(-c2cccs2)cc(-c2cc3c(ccc4ccccc43)oc2=O)[nH]c1=O	36.2 µM	0.94 µM	89%	20.6 µM	30.5 µM	5.6	38.7	585	22704
COc1ccc(-c2cc(-c3cccs3)[nH]c(=O)c2C#N)cc1	28.7 µM	6.7 µM	73%	21.9 µM	15.5 µM	–	–	–	–
N#Cc1c(-c2cccc3ccccc23)cc(-c2ccc3ccccc3c2)nc1N	20.5 µM	1.16 µM	86.5%	19.2 µM	11.9 µM	–	–	–	–
O=c1[nH]cc(F)c(=O)[nH]1 [FLUOROURACIL]	–	–	–	7.9 µM	8.1 µM	–	–	–	–
COc1ccc(-c2cc(-c3cccs3)nc(N)c2C#N)cc1	122 µM	–	76.9%	88.3 µM	104 µM	–	–	–	–
N#Cc1c(-c2cccs2)cc(-c2cccs2)nc1N	91.2 µM	7.52 µM	85%	72.1 µM	28.3 µM	–	–	–	–
COc1cc2c(c(OC)c1OC)-c1ccc(OC)c(=O)cc1[C@@H](NC(C)=O)CC2 [COLCHICINE]	–	4.3 µM	65.1%	–	–	–	–	–	–
N#Cc1c(-c2cccs2)cc(-c2cc3c(ccc4ccccc43)oc2=O)nc1N	80 µM	19.3 µM	69.2%	59.1 µM	35.7 µM	–	–	–	–
N#Cc1c(-c2cccc3ccccc23)cc(-c2cc3c(ccc4ccccc43)oc2=O)[nH]c1=O	25.9 µM	1.47 µM	79.5%	25.2 µM	15.3 µM	–	–	–	–
N#Cc1c(-c2cccc3ccccc23)cc(-c2cc3c(ccc4ccccc43)oc2=O)nc1N	30.6 µM	25.5 µM	61.5%	80.7 µM	45.8 µM	–	–	–	–
N#Cc1c(-c2cccs2)cc(-c2cccs2)nc1O	187 µM	3.16 µM	84.8%	249 µM	41.6 µM	–	–	–	–

Source: ChEMBL document CHEMBL4033648, “Eco-friendly synthesis of novel cyanopyridine derivatives and their anticancer and PIM-1 kinase inhibitory activities” (Eur J Med Chem, 2017)
